Starred links: 1 amine or outer side, 2 acyl side, 3 side chain; linkers in the order of their positions; H or OH if unused. Non-standard residues stand in square brackets, D forms with d. Residues, ends and D or L forms follow the SMILES beside them. *: point of attachment. Phe(4-NO2) = N[C@@H](Cc1ccc([N+](=O)[O-])cc1)C(=O)O; Benzoyl(2-COOH) = O=C(O)c1ccccc1C(=O)*; Phe(3-F) = N[C@@H](Cc1cccc(F)c1)C(=O)O; Phe(4-F) = N[C@@H](Cc1ccc(F)cc1)C(=O)O; 1Nal = N[C@@H](Cc1cccc2ccccc12)C(=O)O; Phe(2-F) = N[C@@H](Cc1ccccc1F)C(=O)O; 3Pal = N[C@@H](Cc1cccnc1)C(=O)O; pS = N[C@@H](COP(=O)(O)O)C(=O)O; Fumaroyl = O=C(O)/C=C/C(=O)*; Suc = O=C(CCC(=O)[*:2])[*:1]; X6 = O=C(O)C1CCC(C(=O)*)CC1; MeOSuc = COC(=O)CCC(=O)*
Biological target: βTrCP (Homo sapiens, UniProt Q9Y297)
Assay: Fluorescence polarisation (FP) binding assay with fluorescein-tagged IκB peptide
Conditions: Tables 1, 3, 7, 8; 10 nM fluorescein-tagged IκB peptide; read-out: FP Assay IC50/μM

Sequence of βTrCP (Q9Y297 whole entry): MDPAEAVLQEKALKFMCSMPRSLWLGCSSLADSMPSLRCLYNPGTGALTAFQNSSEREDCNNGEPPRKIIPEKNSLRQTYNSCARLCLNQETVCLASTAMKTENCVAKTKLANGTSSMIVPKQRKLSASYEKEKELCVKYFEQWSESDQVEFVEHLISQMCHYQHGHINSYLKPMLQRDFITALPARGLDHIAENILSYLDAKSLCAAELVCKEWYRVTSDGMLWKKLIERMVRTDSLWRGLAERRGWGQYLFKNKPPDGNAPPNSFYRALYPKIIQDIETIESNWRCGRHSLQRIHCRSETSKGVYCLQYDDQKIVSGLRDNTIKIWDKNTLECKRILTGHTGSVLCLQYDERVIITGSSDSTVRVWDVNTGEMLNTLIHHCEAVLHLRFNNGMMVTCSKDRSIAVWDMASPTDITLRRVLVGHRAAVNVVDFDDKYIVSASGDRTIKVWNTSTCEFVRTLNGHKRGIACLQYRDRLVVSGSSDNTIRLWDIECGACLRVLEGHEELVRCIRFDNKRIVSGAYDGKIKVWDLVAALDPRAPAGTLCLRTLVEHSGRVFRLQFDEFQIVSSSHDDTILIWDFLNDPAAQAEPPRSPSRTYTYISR
Sequence of βTrCP (P63208 whole entry partner): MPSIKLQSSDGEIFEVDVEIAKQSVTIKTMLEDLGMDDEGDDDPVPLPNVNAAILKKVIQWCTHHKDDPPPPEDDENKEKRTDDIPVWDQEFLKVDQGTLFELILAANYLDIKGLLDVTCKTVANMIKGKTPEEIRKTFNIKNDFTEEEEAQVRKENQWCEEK

Compound | IC50
NC(=O)[C@H](CCC(=O)O)NC(=O)[C@H](Cc1ccccc1)NC(=O)[C@H](Cc1ccccc1)NC(=O)CNC(=O)[C@H](CCC(=O)O)NC(=O)C1CCC(C(=O)O)CC1 (stereo partly drawn) [1,4-Chda-EGFFE-NH2] (X6-EGFFE-NH2) | > 100 µM
CC[C@H](C)[C@H](NC(=O)CNC(=O)[C@H](COP(=O)(O)O)NC(=O)[C@@H](N)CC(=O)O)C(=O)N[C@@H](Cc1ccccc1)C(=O)N[C@@H](Cc1c[nH]cn1)C(N)=O [D-pS-GIFH-NH2] (H-D[pS]GIFH-NH2) | > 100 µM
C[C@H](NC(=O)[C@@H](N)CCC(=O)O)C(=O)N[C@@H](Cc1cccc(F)c1)C(=O)N[C@@H](Cc1ccc([N+](=O)[O-])cc1)C(=O)N[C@@H](CCC(=O)O)C(N)=O [EA-F(3F)-F(4NO2)-E-NH2] | > 100 µM
NC(=O)[C@H](CCC(=O)O)NC(=O)[C@H](Cc1cccc2ccccc12)NC(=O)[C@H](Cc1cccc(F)c1)NC(=O)CNC(=O)[C@@H](N)CCC(=O)O [EG-F(3F)-1Nal-E-NH2] (H-EG[Phe(3-F)][1Nal]E-NH2) | > 100 µM
NC(=O)[C@H](CCC(=O)O)NC(=O)[C@H](Cc1cccc2ccccc12)NC(=O)[C@H](Cc1ccc([N+](=O)[O-])cc1)NC(=O)CNC(=O)[C@@H](N)CCC(=O)O [EG-F(4NO2)-1Nal-E-NH2] (H-EG[Phe(4-NO2)][1Nal]E-NH2) | > 100 µM
NC(=O)[C@H](CCC(=O)O)NC(=O)[C@H](Cc1cccc2ccccc12)NC(=O)[C@H](Cc1ccc(O)cc1)NC(=O)CNC(=O)[C@@H](N)CCC(=O)O [EGY-1Nal-E-NH2] (H-EGY[1Nal]E-NH2) | > 100 µM
CC[C@H](C)[C@H](NC(=O)[C@H](Cc1c[nH]cn1)NC(=O)CNC(=O)[C@H](CO)NC(=O)[C@H](COP(=O)(O)O)NC(=O)[C@H](CC(=O)O)NC(=O)[C@@H](N)CC(C)C)C(=O)N[C@@H](CO)C(N)=O [LD-pS-SGHIS-NH2] (H-LD[pS]SGHIS-NH2) | > 100 µM
C[C@H](NC(=O)c1ccccc1C(=O)O)C(=O)NCC(=O)N[C@@H](Cc1ccccc1)C(=O)N[C@@H](Cc1ccccc1)C(=O)N[C@@H](CCC(=O)O)C(N)=O [Phth-AGFFE-NH2] ({Benzoyl(2-COOH)}-AGFFE-NH2) | > 100 µM
NC(=O)CC[C@H](N)C(=O)NCC(=O)N[C@@H](Cc1cccc(F)c1)C(=O)N[C@@H](Cc1ccc([N+](=O)[O-])cc1)C(=O)N[C@@H](CCC(=O)O)C(N)=O [QG-F(3F)-F(4NO2)-E-NH2] | > 100 µM
C[C@H](NC(=O)[C@H](CCC(=O)O)NC(=O)CCC(=O)O)C(=O)N[C@@H](Cc1cccc(F)c1)C(=O)N[C@@H](Cc1ccc([N+](=O)[O-])cc1)C(=O)N[C@@H](CCC(=O)O)C(N)=O [Suc-EA-F(3F)-F(4NO2)-E-NH2] | 27.5 µM
NC(=O)[C@H](CCC(=O)O)NC(=O)[C@H](Cc1cccc2ccccc12)NC(=O)[C@H](Cc1cccnc1)NC(=O)CNC(=O)[C@H](CCC(=O)O)NC(=O)CCC(=O)O [Suc-EG-3Pal-1Nal-E-NH2] (Suc-EG[3Pal][1Nal]E-NH2) | 3.63 µM
NC(=O)CC[C@H](NC(=O)[C@H](Cc1cccc2ccccc12)NC(=O)[C@H](Cc1cccc(F)c1)NC(=O)CNC(=O)[C@H](CCC(=O)O)NC(=O)CCC(=O)O)C(N)=O [Suc-EG-F(3F)-1Nal-Q-NH2] (Suc-EG[Phe(3-F)][1Nal]Q-NH2) | 7.22 µM
NC(=O)[C@H](Cc1cccnc1)NC(=O)[C@H](Cc1cccc(F)c1)NC(=O)CNC(=O)[C@H](CCC(=O)O)NC(=O)CCC(=O)O [Suc-EG-F(3F)-3Pal-NH2] (Suc-EG[Phe(3-F)][3Pal]-NH2) | 70 µM
NC(=O)[C@H](Cc1cccc(F)c1)NC(=O)[C@H](Cc1ccccc1)NC(=O)CNC(=O)[C@H](CCC(=O)O)NC(=O)CCC(=O)O [Suc-EGF-F(3F)-NH2] (Suc-EGF[Phe(3-F)]-NH2) | > 100 µM
NC(=O)[C@H](Cc1ccc(F)cc1)NC(=O)[C@H](Cc1ccccc1)NC(=O)CNC(=O)[C@H](CCC(=O)O)NC(=O)CCC(=O)O [Suc-EGF-F(4F)-NH2] (Suc-EGF[Phe(4-F)]-NH2) | > 100 µM
NC(=O)[C@H](Cc1ccc([N+](=O)[O-])cc1)NC(=O)[C@H](Cc1ccccc1)NC(=O)CNC(=O)[C@H](CCC(=O)O)NC(=O)CCC(=O)O [Suc-EGF-F(4NO2)-NH2] (Suc-EGF[Phe(4-NO2)]-NH2) | > 100 µM
COC(=O)CC[C@H](NC(=O)[C@H](Cc1ccc(OC)cc1)NC(=O)[C@H](Cc1ccccc1)NC(=O)CNC(=O)[C@H](CCC(=O)O)NC(=O)CCC(=O)O)C(N)=O [Suc-EGF-Y(Me)-E(OMe)-NH2] (Suc-EGFY(Me)E(OMe)-NH2) | 71 µM
CC[C@H](C)[C@H](NC(=O)CNC(=O)[C@H](CCC(=O)O)NC(=O)CCC(=O)O)C(=O)N[C@@H](Cc1cccc2ccccc12)C(=O)N[C@@H](CCC(=O)O)C(N)=O [Suc-EGI-1Nal-E-NH2] (Suc-EGI[1Nal]E-NH2) | 15.1 µM

The next lines start with the values.

IC50 | Compound
1.6 µM | COC(=O)CCC(=O)N[C@@H](CCC(=O)O)C(=O)NCC(=O)N[C@@H](Cc1cccc(F)c1)C(=O)N[C@@H](Cc1cccc2ccccc12)C(=O)N[C@@H](CCC(=O)O)C(N)=O [(MeO)Suc-EG-F(3F)-1Nal-E-NH2] (MeOSuc-EG[Phe(3-F)][1Nal]E-NH2)
> 100 µM | CC[C@H](C)[C@H](NC(=O)CNC(=O)[C@H](COP(=O)(O)O)NC(=O)[C@H](CC(=O)O)NC(=O)[C@H](C)N)C(=O)N[C@@H](Cc1c[nH]cn1)C(=O)N[C@@H](CO)C(N)=O [AD-pS-GIHS-NH2] (H-AD[pS]GIHS-NH2)
> 100 µM | C[C@H](N)C(=O)NCC(=O)N[C@@H](Cc1cccc(F)c1)C(=O)N[C@@H](Cc1ccc([N+](=O)[O-])cc1)C(=O)N[C@@H](CCC(=O)O)C(N)=O [AG-F(3F)-F(4NO2)-E-NH2] (H-AG[Phe(3-F)][Phe(4-NO2)]E-NH2)
> 100 µM | CC[C@H](C)[C@H](NC(=O)CNC(=O)[C@H](COP(=O)(O)O)NC(=O)[C@@H](N)CC(=O)O)C(=O)N[C@@H](Cc1c[nH]cn1)C(=O)N[C@@H](CO)C(N)=O [D-pS-GIHS-NH2] (H-D[pS]GIHS-NH2)
> 100 µM | NC(=O)C[C@H](NC(=O)CNC(=O)[C@H](COP(=O)(O)O)NC(=O)[C@@H](N)CC(=O)O)C(=O)N[C@@H](Cc1ccccc1)C(=O)N[C@@H](CCC(=O)O)C(N)=O [D-pS-GNFE-NH2] (H-D[pS]GNFE-NH2)
34.5 µM | CC[C@H](C)[C@H](NC(=O)CNC(=O)[C@H](COP(=O)(O)O)NC(=O)[C@@H](N)CCC(=O)O)C(=O)N[C@@H](Cc1ccccc1)C(=O)N[C@@H](CCC(=O)O)C(N)=O [E-pS-GIFE-NH2] (H-E[pS]GIFE-NH2)
> 100 µM | NC(=O)[C@H](CCC(=O)O)NC(=O)[C@H](Cc1ccc([N+](=O)[O-])cc1)NC(=O)[C@H](Cc1ccc(O)cc1)NC(=O)CNC(=O)[C@@H](N)CCC(=O)O [EGY-F(4NO2)-E-NH2] (H-EGY[Phe(4-NO2)]E-NH2)
60.4 µM | NC(=O)[C@H](CCC(=O)O)NC(=O)[C@H](Cc1ccc([N+](=O)[O-])cc1)NC(=O)[C@H](Cc1cccc(F)c1)NC(=O)CNC(=O)[C@H](CCC(=O)O)NC(=O)/C=C/C(=O)O [Fum-EG-F(3F)-F(4NO2)-E-NH2] (Fumaroyl-EG[Phe(3-F)][Phe(4-NO2)]E-NH2)
> 100 µM | CC[C@H](C)[C@H](NC(=O)CNC(=O)[C@H](COP(=O)(O)O)NC(=O)[C@H](CC(=O)O)NC(=O)CN)C(=O)N[C@@H](Cc1c[nH]cn1)C(=O)N[C@@H](CO)C(N)=O [GD-pS-GIHS-NH2] (H-GD[pS]GIHS-NH2)
> 100 µM | CC[C@H](C)[C@H](NC(=O)CNC(=O)[C@H](C)NC(=O)c1ccccc1C(=O)O)C(=O)N[C@@H](Cc1ccccc1)C(=O)N[C@@H](CCC(=O)O)C(N)=O [Phth-AGIFE-NH2] ({Benzoyl(2-COOH)}-AGIFE-NH2)
> 100 µM | CC[C@H](C)[C@H](NC(=O)CNC(=O)[C@H](CCC(=O)O)NC(=O)c1ccccc1C(=O)O)C(=O)N[C@@H](Cc1ccccc1)C(=O)N[C@@H](CCC(=O)O)C(N)=O [Phth-EGIFE-NH2] ({Benzoyl(2-COOH)}-EGIFE-NH2)
8.01 µM | C[C@H](NC(=O)CCC(=O)O)C(=O)NCC(=O)N[C@@H](Cc1cccc(F)c1)C(=O)N[C@@H](Cc1ccc([N+](=O)[O-])cc1)C(=O)N[C@@H](CCC(=O)O)C(N)=O [Suc-AG-F(3F)-F(4NO2)-E-NH2] (Suc-AG[Phe(3-F)][Phe(4-NO2)]E-NH2)
> 100 µM | C[C@H](NC(=O)CCC(=O)O)C(=O)NCC(=O)N[C@@H](Cc1ccccc1)C(=O)N[C@@H](Cc1ccccc1)C(=O)N[C@@H](CCC(=O)O)C(N)=O [Suc-AGFFE-NH2] (Suc-AGFFE-NH2)
> 100 µM | CC[C@H](C)[C@H](NC(=O)CNC(=O)[C@H](C)NC(=O)CCC(=O)O)C(=O)N[C@@H](Cc1ccccc1)C(=O)N[C@@H](CCC(=O)O)C(N)=O [Suc-AGIFE-NH2] (Suc-AGIFE-NH2)
22.2 µM | C[C@H](NC(=O)CCC(=O)O)C(=O)NCC(=O)N[C@@H](Cc1ccc(O)cc1)C(=O)N[C@@H](Cc1ccccc1)C(=O)N[C@@H](CCC(=O)O)C(N)=O [Suc-AGYFE-NH2]
59.8 µM | C[C@H](NC(=O)[C@H](CCC(=O)O)NC(=O)CCC(=O)O)C(=O)N[C@@H](Cc1ccccc1)C(=O)N[C@@H](Cc1ccccc1)C(=O)N[C@@H](CCC(=O)O)C(N)=O [Suc-EAFFE-NH2]
82.1 µM | C[C@H](NC(=O)[C@H](CCC(=O)O)NC(=O)CCC(=O)O)C(=O)N[C@@H](Cc1ccc(O)cc1)C(=O)N[C@@H](Cc1ccccc1)C(=O)N[C@@H](CCC(=O)O)C(N)=O [Suc-EAYFE-NH2]
> 100 µM | NC(=O)[C@H](Cc1cccc(F)c1)NC(=O)[C@H](Cc1ccccc1F)NC(=O)CNC(=O)[C@H](CCC(=O)O)NC(=O)CCC(=O)O [Suc-EG-F(2F)-F(3F)-NH2] (Suc-EG[Phe(2-F)][Phe(3-F)]-NH2)
> 100 µM | NC(=O)[C@H](Cc1ccc([N+](=O)[O-])cc1)NC(=O)[C@H](Cc1cccc(F)c1)NC(=O)CNC(=O)[C@H](CCC(=O)O)NC(=O)CCC(=O)O [Suc-EG-F(3F)-F(4NO2)-NH2] (Suc-EG[Phe(3-F)][Phe(4-NO2)]-NH2)
1.4 µM | COc1ccc(C[C@H](NC(=O)[C@H](Cc2cccc(F)c2)NC(=O)CNC(=O)[C@H](CCC(=O)O)NC(=O)CCC(=O)O)C(=O)N[C@@H](CCC(=O)O)C(N)=O)cc1 [Suc-EG-F(3F)-Y(Me)-E-NH2] (Suc-EG[Phe(3-F)]Y(Me)E-NH2)
14 µM | NC(=O)[C@H](Cc1cccc2ccccc12)NC(=O)[C@H](Cc1ccc([N+](=O)[O-])cc1)NC(=O)CNC(=O)[C@H](CCC(=O)O)NC(=O)CCC(=O)O [Suc-EG-F(4NO2)-1Nal-NH2] (Suc-EG[Phe(4-NO2)][1Nal]-NH2)

From patent US20190106460A1, “BINDING INHIBITORS OF THE BETA. TRANSDUCIN REPEAT-CONTAINING PROTEIN” (priority 2011, published 2019)
